{
  "source": "patent US10449129B2",
  "about": "“Encapsulates of salicylic acid and polysalicylic acid derivatives” (Biocogent, LLC, priority 2015, dated 2019)",
  "origin": "cited, not measured here",
  "details": "room temperature",
  "data": [
    {"smiles": "O=C(O)c1ccccc1O", "note": "[SA, salicylic acid]", "values": [
      {"measurement": "limit of solubility in water", "result": "approximately 0.2%"}
    ]}
  ]
}
